The source of these data is patent US20260207720A1, “COMPOSITIONS AND METHODS FOR TREATING FUNGAL INFECTIONS” (MUCPharm Pty Ltd, priority 2022, published 2026).

For assay [1], the system named is Candida glabrata (clinical isolate). Description: Broth dilution susceptibility test, MIC and percent growth (Example 5). The assay is classed as cell-based. The note with it: for MIC: 24 hours, 625 nm. Here is the method:
These experiments were conducted to determine the effect of BromAc alone and in combination with existing antifungal drugs against Candida glabrata (clinical isolate).
(§1) A. Preparation of inoculum: • 1. Candida glabrata was grown on Sabouraud dextrose agar (SDA) at 37° C. for 24-48 hrs. • 2. Following this, 5 colonies of 1 mm diameter were picked and suspended in 5 mL sterile saline (0.9% saline) and vortexed for 15 seconds. • 3. Working suspension is prepared as a 1:100 dilution from stock suspension with RPMI 1640 culture medium. • 4. The cell density is adjusted with a spectrophotometer to the transmittance produced by a 0.5 McFarland standard (0.08 to 0.1) OD at 625 nm wavelength.
(§2) • 1. For Bromelain, a stock concentration of 1 mg/ml Bromelain solution was prepared in RPMI media and diluted to test concentrations of 62.4, 31.2, 15.6 and 7.8 μg/ml in RPMI 1640 media. • 2. Acetylcysteine stock concentration is 200 mg/ml, diluted to 40, 20, 10, and 5 mg/ml concentrations in RPMI 1640 medium. • 3. These concentrations are prepared at 2× of the required concentrations in the final assay plate.
(§3) Antifungal stock concentrations are as follows— • 1. Amphotericin B, Stock concentration: 250 μg/ml in water. • 2. Posaconazole, Original concentration: 300 mg in 16.7 ml, Working stock concentration: 1 mg/ml in DMSO. • 3. Fluconazole, Original concentration: 100 mg in 50 ml, Working stock concentration: 1 mg/ml in DMSO. • 4. The final concentration was prepared in RPMI 1640 media and concentrations range was 0.01-0.5 μg/mL for amphotericin B, 0.01-2 μg/mL for posaconazole and 0.01-64 μg/mL for fluconazole. • 5. These concentrations were prepared at 2× of the required concentrations in the final assay plate.
(§4) • 1. Wells of the 96-well plates were inoculated with appropriate concentrations and volumes of drugs. • 2. Sterility control and growth controls are included in each plate. • 3. Each 96-well plate (except the control wells) contains 100 μL of double strength (twice the final antifungal drug) concentrations. • 4. 100 μL of the fungal suspension is added to 96-well plates (except the sterility control wells). • 5. The growth control wells contained 100 μL of sterile drug-free medium and 100 μL of inoculum suspension, while the sterility control wells contained 200 μl of sterile drug-free medium. • 6. Plates are then incubated at 37° C. and read at 625,430, and 530 nm wavelengths. • 7. Data from 24 hours and absorbance at 625 nm were used for analysis.

Assay [2] concerns Candida Krusei (ATCC strain 6258). Put plainly: Broth dilution susceptibility test, MIC and percent growth (Example 6). Format: cell-based. The note with it: for effect at lower doses / concentrations compared to GC (in words): below the MIC (Posaconazole 0.03 μg/ml). On the procedure: as §1, §2, §3, §4
These experiments were conducted to determine the effect of BromAc alone and in combination with existing antifungal drugs against Candida Krusei (ATCC strain 6258).
The method used in these experiments is essentially the same as that described above in Example 5.

With `C[C@@H]1[C@H](O)[C@@H](C)/C=C/C=C/C=C/C=C/C=C/C=C/C=C/[C@H](O[C@@H]2O[C@H](C)[C@@H](O)[C@H](N)[C@@H]2O)C[C@@H]2O[C@](O)(C[C@@H](O)C[C@@H](O)[C@H](O)CC[C@@H](O)C[C@@H](O)CC(=O)O[C@H]1C)C[C@H](O)[C@H]2C(=O)O` [Amphotericin B], the MIC in assay [1] (Nakaseomyces glabratus, measured at 90% growth inhibition) turned out to be 1 µg/mL; in assay [2] (Pichia kudriavzevii, ATCC6258, close to 90% inhibition), 1 µg/mL. The “effect at lower doses / concentrations compared to GC (in words)” value in assay [2] was “significant inhibition”.

On to `CC[C@@H]([C@H](C)O)n1ncn(-c2ccc(N3CCN(c4ccc(OC[C@@H]5CO[C@@](Cn6cncn6)(c6ccc(F)cc6F)C5)cc4)CC3)cc2)c1=O` [Posaconazole], for which the MIC is 2 µg/mL in assay [1] (Nakaseomyces glabratus, 50% growth inhibition) and 1 µg/mL in assay [2] (Pichia kudriavzevii, ATCC6258, FIG. 10). For the same molecule, the inhibition at 2 µg/mL in assay [1] (Nakaseomyces glabratus, at 2 μg/ml, read-out: decline in C. glabrata viability over the growth control) was 25%. Further, in assay [1] (at the concentrations tested, FIGS. 3-7), the “effect on C. glabrata viability / growth (in words)” value is listed as “weaker antifungal effect”. The “effect at lower concentration compared to growth control (in words)” value in assay [1] (concentrations lower than the MIC) was “slight decline”. Besides, the inhibition at 1 µg/mL in assay [2] (Pichia kudriavzevii, ATCC6258, Posaconazole 1 ug/ml, Fluconazole 32 μg/ml, read-out: activity (growth inhibition) at its MIC) was above 50%. In addition, in assay [2], the “effect at lower doses / concentrations compared to GC (in words)” value is “no significant inhibition”.
